Results taken from patent US20060280787A1, “Pharmaceutical formulation of the tubulin inhibitor indibulin for oral administration with improved pharmacokinetic properties, and process for the manufacture thereof” (priority 2005, published 2006).

Legend:
microtubules = assay: Polymerization of microtubules in a cell-free system; type: biochemical
Description: (§1) Indibulin is a synthetic small molecule tubulin inhibitor with significant antitumor activity in vitro and in vivo. […] Furthermore, the molecule selectively blocks cell cycle progression at metaphase.

[1] = Bioavailability of pure Indibulin; type: in vivo
Description: (§2) Indibulin is obtained by chemical synthesis as a white crystalline powder. Its solubility in hydrophilic solvents is poor. […] Due to these properties, the bioavailability of pure Indibulin is very low, as is Indibulin's bioavailability in common pharmaceutical dosage forms, e.g., powder, granula, tablets or capsules.

[2] = Neurological symptoms in animal experiments; type: in vivo, animals
Description: (§3) In vitro, Indibulin exerts significant antitumor activity against a variety of malignancies (e.g., prostate, brain, breast, pancreas, and colon). […] Based on its mechanism of action, it is expected to target all types of solid tumors. […] Another advantage for further development is its easy synthesis, in contrast to other tubulin-inhibitory compounds.

[3] = Tolerability in preclinical experiments in rodents; type: in vivo; conditions: highly effective doses
Description: as §3

[4] = test system: microtubules in tumor cells; assay: Polymerization of microtubules in tumor cells; type: cell-based
Description: as §1

[5] = Solubility of Indibulin in solvents; type: physicochemical
Description: as §2
However, these organic solvents cannot be used for application in humans due to their toxicity.

O=C(Nc1ccncc1)C(=O)c1cn(Cc2ccc(Cl)cc2)c2ccccc12 [Indibulin, N-(pyridine-4-yl)-[1-(4-chlorobenzyl)-indole-3-yl]glyoxylic acid amide]
polymerization of microtubules (microtubules): inhibits polymerization of microtubules
bioavailability [1]: very low
neurological symptoms [2]: No neurological symptoms
tolerability [3]: very well tolerated
polymerization of microtubules [4]: inhibits polymerization of microtubules
solubility in organic solvents ([5]; dimethylformamide, dimethylsulfoxide and N-methylpyrrolidone): sufficient solubility
solubility in highly concentrated organic acids ([5]; roughly >50% w/v acetic acid or lactic acid): relatively good solvents
solubility in hydrophilic solvents ([5]; water, methanol, ethanol or 2-propanol): practically insoluble
